The values below come from article PMC4922798 (Journal of the American Chemical Society, 2015).

SMILES strings stand for the structures.

This experiment deals with CazM (Chaetomium globosum, UniProt A0A0K0MCJ4). Briefly: HPLC / LC-MS product analysis. The experiment is classed as biochemical. To be noted: 2 mM 11-SNAC, malonyl-CoA, SAM; pH 7.4, room temperature, 8 h; reductive release.
CazM, sequence (A0A0K0MCJ4 whole entry): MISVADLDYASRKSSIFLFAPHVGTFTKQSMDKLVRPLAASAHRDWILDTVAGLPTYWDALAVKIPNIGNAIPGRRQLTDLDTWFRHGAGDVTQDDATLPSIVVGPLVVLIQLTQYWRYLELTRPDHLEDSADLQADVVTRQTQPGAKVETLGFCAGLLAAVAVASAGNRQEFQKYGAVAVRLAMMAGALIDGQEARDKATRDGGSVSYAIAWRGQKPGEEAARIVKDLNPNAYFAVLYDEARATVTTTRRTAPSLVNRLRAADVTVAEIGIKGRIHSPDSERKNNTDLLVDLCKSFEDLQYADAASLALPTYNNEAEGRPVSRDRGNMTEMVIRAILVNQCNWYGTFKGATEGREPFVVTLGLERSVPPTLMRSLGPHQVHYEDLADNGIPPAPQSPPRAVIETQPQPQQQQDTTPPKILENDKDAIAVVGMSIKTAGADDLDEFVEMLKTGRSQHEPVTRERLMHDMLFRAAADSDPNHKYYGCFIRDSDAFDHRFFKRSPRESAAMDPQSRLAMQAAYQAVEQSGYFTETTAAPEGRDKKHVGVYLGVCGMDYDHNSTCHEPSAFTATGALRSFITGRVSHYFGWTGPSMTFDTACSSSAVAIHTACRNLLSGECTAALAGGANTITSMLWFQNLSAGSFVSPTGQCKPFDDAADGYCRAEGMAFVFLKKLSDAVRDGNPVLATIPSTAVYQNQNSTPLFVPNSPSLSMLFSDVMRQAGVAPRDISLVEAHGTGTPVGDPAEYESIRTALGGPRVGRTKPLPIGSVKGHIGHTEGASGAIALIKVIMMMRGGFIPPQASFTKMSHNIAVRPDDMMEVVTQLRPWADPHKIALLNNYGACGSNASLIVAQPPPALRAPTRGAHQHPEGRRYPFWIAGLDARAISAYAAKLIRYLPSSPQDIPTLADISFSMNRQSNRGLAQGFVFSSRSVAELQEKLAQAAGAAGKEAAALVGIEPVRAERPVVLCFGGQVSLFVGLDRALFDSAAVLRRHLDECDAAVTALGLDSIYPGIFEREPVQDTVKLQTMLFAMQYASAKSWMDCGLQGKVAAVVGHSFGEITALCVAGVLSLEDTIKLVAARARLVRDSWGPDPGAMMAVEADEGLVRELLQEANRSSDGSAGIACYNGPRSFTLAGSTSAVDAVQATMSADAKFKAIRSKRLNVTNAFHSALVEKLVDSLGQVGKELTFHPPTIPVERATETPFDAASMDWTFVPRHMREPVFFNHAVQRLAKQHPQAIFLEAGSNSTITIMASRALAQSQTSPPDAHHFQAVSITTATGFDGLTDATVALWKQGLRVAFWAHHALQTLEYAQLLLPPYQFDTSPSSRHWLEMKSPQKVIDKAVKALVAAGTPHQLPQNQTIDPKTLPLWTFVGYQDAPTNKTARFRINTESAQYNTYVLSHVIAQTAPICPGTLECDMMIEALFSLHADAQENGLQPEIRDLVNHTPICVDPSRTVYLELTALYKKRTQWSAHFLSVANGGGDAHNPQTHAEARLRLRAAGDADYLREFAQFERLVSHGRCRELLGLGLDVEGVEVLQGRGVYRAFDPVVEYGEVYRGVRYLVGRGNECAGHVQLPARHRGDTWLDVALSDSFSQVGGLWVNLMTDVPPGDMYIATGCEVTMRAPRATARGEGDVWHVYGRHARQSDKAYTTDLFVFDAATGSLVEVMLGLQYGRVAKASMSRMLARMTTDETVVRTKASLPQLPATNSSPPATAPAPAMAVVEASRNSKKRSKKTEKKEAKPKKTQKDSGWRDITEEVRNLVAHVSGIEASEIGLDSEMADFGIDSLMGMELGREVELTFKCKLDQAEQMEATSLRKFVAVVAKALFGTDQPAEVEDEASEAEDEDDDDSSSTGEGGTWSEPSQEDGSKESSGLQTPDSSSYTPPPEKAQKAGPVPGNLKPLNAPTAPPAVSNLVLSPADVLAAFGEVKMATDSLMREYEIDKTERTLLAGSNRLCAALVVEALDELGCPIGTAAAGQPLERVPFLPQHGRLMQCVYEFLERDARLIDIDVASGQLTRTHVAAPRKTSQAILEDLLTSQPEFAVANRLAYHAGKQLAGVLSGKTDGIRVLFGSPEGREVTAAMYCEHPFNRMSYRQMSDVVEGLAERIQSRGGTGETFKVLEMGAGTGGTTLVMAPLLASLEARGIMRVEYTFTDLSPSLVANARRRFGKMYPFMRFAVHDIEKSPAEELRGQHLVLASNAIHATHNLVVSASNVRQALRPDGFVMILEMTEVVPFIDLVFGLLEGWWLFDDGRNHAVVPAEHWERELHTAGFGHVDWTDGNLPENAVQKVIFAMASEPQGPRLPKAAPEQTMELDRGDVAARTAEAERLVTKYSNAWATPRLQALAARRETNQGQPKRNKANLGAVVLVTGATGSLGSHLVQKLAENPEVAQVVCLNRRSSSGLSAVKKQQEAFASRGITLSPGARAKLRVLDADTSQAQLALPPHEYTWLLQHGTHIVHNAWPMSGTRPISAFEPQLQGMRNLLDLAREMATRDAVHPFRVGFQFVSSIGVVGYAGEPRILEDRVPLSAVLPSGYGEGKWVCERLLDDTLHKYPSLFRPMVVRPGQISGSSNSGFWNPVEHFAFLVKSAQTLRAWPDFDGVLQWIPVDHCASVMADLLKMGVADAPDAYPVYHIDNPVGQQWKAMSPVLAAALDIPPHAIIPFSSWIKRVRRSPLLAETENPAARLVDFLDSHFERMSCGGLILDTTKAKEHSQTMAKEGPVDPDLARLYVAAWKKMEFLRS

For `NC(=O)C1=CN([C@@H]2O[C@H](COP(=O)(O)OP(=O)(O)OC[C@H]3O[C@@H](n4cnc5c(N)ncnc54)[C@H](OP(=O)(O)O)[C@@H]3O)[C@@H](O)[C@H]2O)C=CC1` [NADPH], the “HPLC / LC-MS product analysis” value was “CazM requires NADPH for the reductive offloading of its polyketide product”.
